The values below are quoted from earlier work in US9459187B2, “Blood collection device containing lysophospholipase inhibitor” (Becton, Dickinson and Company, priority 2011, dated 2016).

In general, Ki refers to the dissociation constant of the complex between target and ligand, obtained from inhibition or displacement.

Data set [1] addresses acetylcholinesterase (AChE) (Homo sapiens, UniProt P22303). The note with it: read-out: Ki for AChE.

acetylcholinesterase (AChE), sequence (P22303 32-614, species assumed): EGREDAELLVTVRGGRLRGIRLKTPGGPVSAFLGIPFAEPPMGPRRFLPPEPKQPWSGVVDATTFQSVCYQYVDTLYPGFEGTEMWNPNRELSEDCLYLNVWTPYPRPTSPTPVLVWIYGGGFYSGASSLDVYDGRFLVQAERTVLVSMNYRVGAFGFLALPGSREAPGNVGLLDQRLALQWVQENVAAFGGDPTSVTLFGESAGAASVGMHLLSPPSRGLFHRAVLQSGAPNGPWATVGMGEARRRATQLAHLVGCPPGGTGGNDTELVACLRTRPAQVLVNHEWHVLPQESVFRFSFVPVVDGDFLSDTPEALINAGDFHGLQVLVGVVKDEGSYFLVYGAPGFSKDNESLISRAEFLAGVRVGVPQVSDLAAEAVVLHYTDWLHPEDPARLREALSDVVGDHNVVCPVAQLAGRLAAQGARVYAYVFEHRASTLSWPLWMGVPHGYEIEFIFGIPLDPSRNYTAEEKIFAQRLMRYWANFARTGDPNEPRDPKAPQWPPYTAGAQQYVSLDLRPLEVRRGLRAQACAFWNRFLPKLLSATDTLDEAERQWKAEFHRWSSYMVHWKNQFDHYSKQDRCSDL

Turning to `CCC1=CC2Cc3nc4cc(Cl)ccc4c(N)c3[C@H](C1)C2` [Huprine X, (1S)-7-chloro-15-ethyl-10-azatetracyclo[11.3.1.0^{2,11}.0^{4,9}]heptadeca-2(11),3,5,7,9,14-hexaen-3-amine], in data set [1], the Ki was 0.026 nM. As to GIP(1-42), the half-life in circulation entry is “about 5 minutes”.

On to “ghrelin: 28-amino acid peptide having the sequence NH2-GSSFLSPEHQRVQQRKESKKPPAKLQPR-COOH (H-GSSFLSPEHQRVQQRKESKKPPAKLQPR-OH; ends and bridges not checked)”, for which the half-life in circulation entry was “about 30 minutes”. Turning to “glucagon: 29-amino acid peptide involved in carbohydrate metabolism”, the half-life in circulation is 8 to 18 min.
